Measurements from ChEMBL document CHEMBL3045551, “Synthesis and Acaricidal Activity of N-(1,3,4-Thiadiazol-2-yl)cyclopropanecarboxamides” (2003).

Experiments:
Format in all cases: functional
Tetranychus urticae [1] = assay: Acaricidal activity against Tetranychus urticae (two-spotted spider mite) assessed as mite mortality at 500 ppm relative to untreated control
Tetranychus urticae [2] = assay: Acaricidal activity against Tetranychus urticae (two-spotted spider mite) assessed as mite mortality at 50 ppm relative to untreated control
Tetranychus urticae [3] = assay: Acaricidal activity against Tetranychus urticae (two-spotted spider mite) assessed as mite mortality at 200 ppm relative to untreated control
Tetranychus urticae [4] = assay: Acaricidal activity against Tetranychus urticae (two-spotted spider mite) assessed as mite mortality at 12.5 ppm relative to untreated control

| Structure (SMILES) | mortality at 500 ppm (Tetranychus urticae [1]) [%] | mortality at 50 ppm (Tetranychus urticae [2]) [%] | mortality at 200 ppm (Tetranychus urticae [3]) [%] | mortality at 12.5 ppm (Tetranychus urticae [4]) [%] |
| --- | --- | --- | --- | --- |
| CCc1nnc(NC(=O)C2(C)CC2(Cl)Cl)s1 (stereo unspecified) | 0 |  |  |  |
| Cc1nnc(NC(=O)C2(C)CC2(Cl)Cl)s1 (stereo unspecified) | 0 |  |  |  |
| CC1(C(=O)Nc2nncs2)CC1(Cl)Cl (stereo unspecified) | 0 |  |  |  |
| CC1(C(=O)Nc2nnc(C(F)(F)C(F)(F)C(F)(F)C(F)(F)F)s2)CC1(Cl)Cl (stereo unspecified) | 0 |  |  |  |
| CC1(C(=O)Nc2nnc(C(F)(F)C(F)(F)C(F)(F)F)s2)CC1(Cl)Cl (stereo unspecified) | 100 | 100 | 100 | 80 |
| CC1(C(=O)Nc2nnc(C(F)(F)C(F)(F)F)s2)CC1(Cl)Cl (stereo unspecified) | 100 | 100 | 100 | 30 |
| CC1(C(=O)Nc2nnc(C(F)(F)F)s2)CC1(Br)Br (stereo unspecified) | 100 | 30 | 100 | 0 |
| CC1(C(=O)Nc2nnc(C(F)(F)F)s2)CC1 | 0 |  |  |  |
| CC(C)C1(C(=O)Nc2nnc(C(F)(F)F)s2)CC1(Cl)Cl (stereo unspecified) | 80 | 30 | 80 | 30 |
| CCCCC1(C(=O)Nc2nnc(C(F)(F)F)s2)CC1(Cl)Cl (stereo unspecified) | 80 |  | 30 |  |
| CCCC1(C(=O)Nc2nnc(C(F)(F)F)s2)CC1(Cl)Cl (stereo unspecified) | 100 | 80 | 100 | 0 |
| CCC1(C(=O)Nc2nnc(C(F)(F)F)s2)CC1(Cl)Cl (stereo unspecified) | 100 | 100 | 100 | 0 |
| O=C(Nc1nnc(C(F)(F)F)s1)C1CC1(Cl)Cl (stereo unspecified) | 0 |  |  |  |
| CC1(C(=O)Nc2nnc(C(F)(F)F)s2)CC1(Cl)Cl (stereo unspecified) | 100 | 100 | 100 | 30 |
